# According to patent publication US20060211651A1, “Persulfated oligosaccharide acting on selectins and chemokine” (Taisho Pharmaceutical Co., Ltd., priority 2002, published 2006):
# Assays:
# ACHN cells = assay: Sulfation of versican in [35S]sulfate-labeled ACHN cells; assay type: cell-based; settings: 30 mM sodium chlorate, relative to the case without treatment
# Protocol: (§1) ACHN cells were pre-incubated at 37° C. for 6 hours in RPMI 1640 containing 10% by weight of bovine fetal serum in the presence or absence of 30 mM sodium chlorate. A confluent monolayer of the resulting ACHN cells was labeled by incubation for 18 hours in the presence or absence of 30 mM sodium chlorate, in a medium of either of:
# (i) Eagle minimum basal medium SMEM [sulfate-free; manufactured by BioWhittaker] containing 2% by weight of dialyzed bovine fetal serum in the presence of 0.2 mCi/ml [^35S]Na2SO4 [trade name: Sulfer-35; manufactured by ICN Radiochemicals], or
# (ii) methionine-free RPMI 1640 medium [manufactured by Invitrogen] containing 2% by weight of dialyzed bovine fetal serum in the presence of 0.2 mCi/ml [^35S]-methionine [manufactured by ICN Radiochemicals].
# Immunoprecipitation was performed as follows, according to the method described in the publication of Kawashima, H. et al. [Int. Immunol., 11, 393-405 (1999); all teachings of which are hereby incorporated by reference] except that beads were washed using buffer A (0.05% Tween 20, 20 mM HEPES-NaOH, 0.15M NaCl, 1 mM CaCl2, 1 mM MgCl2, pH6.8). […]
# (§2) Thereafter, the beads were washed with the buffer A, to obtain precipitates. The resulting precipitates were subjected to SDS-agarose-PAGE, and thereafter, signal ascribed to ^35S label on a gel was detected by autoradiography.
# L-selectin-Ig = target: T1, L-selectin-Ig (Homo sapiens, UniProt P14151); assay: Immunoprecipitation of versican from ACHN conditioned medium with L-selectin-Ig; assay type: binding; settings: 30 mM sodium chlorate; ACHN cells; FIG. 1
# T1 construct: purchased R & D Systems Inc
# Protocol: as §1
# (§3) Immunoprecipitation was performed as follows, according to the method described in the publication of Kawashima, H. et al. [Int. Immunol., 11, 393-405 (1999); all teachings of which are hereby incorporated by reference] except that beads were washed using buffer A (0.05% Tween 20, 20 mM HEPES-NaOH, 0.15M NaCl, 1 mM CaCl2, 1 mM MgCl2, pH6.8).
# (§4) Each of the antibody and the Ig chimera shown in FIG. 1 (equivalent to 10 μg) was coupled to Protein A-Sepharose column (equivalent to 10 μL) by a conventional method, to obtain antibody-coupled Protein A-Sepharose or Ig chimera-coupled Protein A-Sepharose. […]
# as §2
# P-selectin-Ig = assay: Immunoprecipitation of versican from ACHN conditioned medium with P-selectin-Ig; assay type: binding; settings: 30 mM sodium chlorate; ACHN cells; FIG. 1
# Protocol: as §1, §3, §4, §2
# CD44-Ig = assay: Immunoprecipitation of versican from ACHN conditioned medium with CD44-Ig; assay type: binding, human; settings: 30 mM sodium chlorate; ACHN cells; FIG. 1
# Protocol: as §1, §3, §4, §2
# T1 sequence (P14151 with tags, fused parts or gaps limits assumed): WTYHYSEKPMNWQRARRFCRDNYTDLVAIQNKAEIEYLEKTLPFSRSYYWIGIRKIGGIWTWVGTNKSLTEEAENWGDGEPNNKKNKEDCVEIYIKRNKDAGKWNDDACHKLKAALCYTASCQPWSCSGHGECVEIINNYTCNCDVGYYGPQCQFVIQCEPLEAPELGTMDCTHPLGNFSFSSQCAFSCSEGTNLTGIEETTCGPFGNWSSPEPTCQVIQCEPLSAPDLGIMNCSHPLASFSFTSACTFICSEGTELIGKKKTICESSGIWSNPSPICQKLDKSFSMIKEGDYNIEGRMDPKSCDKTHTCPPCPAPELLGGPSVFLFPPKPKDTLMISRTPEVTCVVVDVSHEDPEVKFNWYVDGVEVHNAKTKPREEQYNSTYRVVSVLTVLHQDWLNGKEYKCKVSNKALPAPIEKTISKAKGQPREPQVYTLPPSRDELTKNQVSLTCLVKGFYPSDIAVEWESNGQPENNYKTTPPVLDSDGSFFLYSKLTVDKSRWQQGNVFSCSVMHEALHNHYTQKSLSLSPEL
structure (smiles),measurement,setting,value
[Na+].[O-][Cl+2]([O-])[O-] [sodium chlorate],inhibition of sulfation,ACHN cells,more than 90%
same,effect of treatment on interaction between versican and L-selectin-Ig,L-selectin-Ig,inhibited
same,effect of treatment on interaction between versican and P-selectin-Ig,P-selectin-Ig,inhibited
same,effect of treatment on interaction between versican and CD44-Ig,CD44-Ig,not inhibited
